Paper PMC4710522, “A Novel Triazolopyridine-Based Spleen Tyrosine Kinase Inhibitor That Arrests Joint Inflammation” (PLoS ONE, 2016)
“And” between values parts separate entries of the source, which are not always exact repeats. Equal values may be shown once. Read-outs that look alike come from different tables or passages of the source.

What was measured:
[1] = target: T1, Arg_m (Mus musculus, UniProt Q4JIM5); experiment: SelectScreen kinase assay; type: biochemical; details: KM ATP
T1 construct: purchased Life Technologies (Invitrogen) SelectScreen, Z'-LYTE / Adapta
T1 sequence (Q4JIM5 2-1182 limits assumed): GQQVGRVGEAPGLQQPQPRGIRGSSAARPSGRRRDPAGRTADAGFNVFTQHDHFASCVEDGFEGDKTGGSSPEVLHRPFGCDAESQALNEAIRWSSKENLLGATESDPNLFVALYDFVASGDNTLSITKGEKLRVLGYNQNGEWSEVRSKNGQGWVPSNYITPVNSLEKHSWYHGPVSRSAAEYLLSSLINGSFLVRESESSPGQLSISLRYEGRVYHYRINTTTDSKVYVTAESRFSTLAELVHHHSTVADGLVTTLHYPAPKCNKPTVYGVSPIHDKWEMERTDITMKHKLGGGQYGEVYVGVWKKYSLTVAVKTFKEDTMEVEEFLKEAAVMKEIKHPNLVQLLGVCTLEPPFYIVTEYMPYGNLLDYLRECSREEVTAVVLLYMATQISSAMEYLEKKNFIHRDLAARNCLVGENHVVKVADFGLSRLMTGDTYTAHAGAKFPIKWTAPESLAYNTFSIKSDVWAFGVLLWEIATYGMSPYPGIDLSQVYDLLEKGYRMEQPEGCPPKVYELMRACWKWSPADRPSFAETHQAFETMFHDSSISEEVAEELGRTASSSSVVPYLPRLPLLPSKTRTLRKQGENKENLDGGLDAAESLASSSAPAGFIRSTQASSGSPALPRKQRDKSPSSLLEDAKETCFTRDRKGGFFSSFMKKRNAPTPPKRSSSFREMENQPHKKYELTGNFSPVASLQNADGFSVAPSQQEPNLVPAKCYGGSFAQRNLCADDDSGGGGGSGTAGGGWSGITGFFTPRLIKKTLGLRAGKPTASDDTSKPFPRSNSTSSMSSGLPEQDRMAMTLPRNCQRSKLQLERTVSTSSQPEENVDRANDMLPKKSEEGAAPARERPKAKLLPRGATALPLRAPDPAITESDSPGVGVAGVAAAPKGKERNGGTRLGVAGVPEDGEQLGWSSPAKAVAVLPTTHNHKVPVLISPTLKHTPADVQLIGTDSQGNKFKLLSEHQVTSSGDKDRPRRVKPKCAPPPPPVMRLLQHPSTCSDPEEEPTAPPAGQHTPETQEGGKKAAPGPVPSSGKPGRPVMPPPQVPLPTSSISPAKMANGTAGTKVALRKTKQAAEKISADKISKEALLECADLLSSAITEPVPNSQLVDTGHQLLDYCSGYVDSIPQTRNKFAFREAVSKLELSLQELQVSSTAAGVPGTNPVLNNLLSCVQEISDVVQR
Protocol: (§1) Syk kinase mode of inhibition studies, including parameters described in Fig 1, were conducted on the LC3000 platform by Caliper Life Sciences (Hopkinton, MA) according to standard protocols developed by the supplier. […] Non-kinase enzyme assays and GPCR, ion channel, and transporter binding assays were run by CEREP (France). Non-GLP manual patch clamp hERG assays were run by ChanTest (Cleveland, Ohio). Vivid® Assay kits (Life Technologies) were used to measure the cytochrome P450 inhibition of the compound against CYP3A, CYP2C9, CYP2C19, CYP2D6, and CYP1A2, as described.
(§2) Kinase activity was measured using either the Z’-Lyte® or the Adapta® protocols as part of the SelectScreen™ profiling service offered at Life Technologies (Grand Island, NY). For the single point measurements (Part A), CC-509 was kept constant at 3 µM while ATP concentrations [ATP] used were at the KM for ATP (KM ATP) for that specific enyzme, at 10 or 100 µM ATP (10 ATP or 100 ATP, respectively), as indicated. Values expressed as percent control (% control) relative to DMSO-only wells (uninhibited, 100%).
(§3) Kinase activity was measured using either the Z’-Lyte® or the Adapta® protocols as part of the SelectScreen™ profiling service offered at Life Technologies (Grand Island, NY). […] Values expressed as percent control (% control) relative to DMSO-only wells (uninhibited, 100%).

[2] = target: T2, Blk_m (Mus musculus, UniProt P16277); experiment: SelectScreen kinase assay; type: biochemical; details: KM ATP
T2 construct: purchased Life Technologies (Invitrogen) SelectScreen, Z'-LYTE / Adapta
Protocol: as §1, §2, §3

[3] = target: T3, CDK1_cyclinB_h (Homo sapiens, UniProt P06493); experiment: SelectScreen kinase assay; type: biochemical; details: KM ATP
T3 construct: purchased Life Technologies (Invitrogen) SelectScreen, Z'-LYTE / Adapta
Protocol: as §1, §2, §3

[4] = target: T4, DYRK3_h (Homo sapiens, UniProt O43781); experiment: SelectScreen kinase assay; type: biochemical; details: KM ATP
T4 construct: purchased Life Technologies (Invitrogen) SelectScreen, Z'-LYTE / Adapta
Protocol: as §1, §2, §3

[5] = target: T5, DYRK4_h (Homo sapiens, UniProt Q9NR20); experiment: SelectScreen kinase assay; type: biochemical; details: KM ATP
T5 construct: purchased Life Technologies (Invitrogen) SelectScreen, Z'-LYTE / Adapta
T5 sequence (Q9NR20 whole entry): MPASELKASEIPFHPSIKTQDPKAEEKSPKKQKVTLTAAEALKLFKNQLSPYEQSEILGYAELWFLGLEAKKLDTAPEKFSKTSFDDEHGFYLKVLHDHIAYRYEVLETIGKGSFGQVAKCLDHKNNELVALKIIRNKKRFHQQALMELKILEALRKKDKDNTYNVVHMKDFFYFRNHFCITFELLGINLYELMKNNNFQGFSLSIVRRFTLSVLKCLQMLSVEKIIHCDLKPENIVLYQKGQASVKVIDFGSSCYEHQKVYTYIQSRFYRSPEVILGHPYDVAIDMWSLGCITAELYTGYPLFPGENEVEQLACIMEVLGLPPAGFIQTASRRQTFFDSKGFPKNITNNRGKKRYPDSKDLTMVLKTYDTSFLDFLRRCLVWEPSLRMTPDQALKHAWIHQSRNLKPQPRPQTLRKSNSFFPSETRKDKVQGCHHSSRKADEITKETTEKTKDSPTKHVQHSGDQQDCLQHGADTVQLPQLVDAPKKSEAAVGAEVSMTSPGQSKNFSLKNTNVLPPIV
Protocol: as §1, §2, §3

[6] = target: T6, EEF2K_h (Homo sapiens, UniProt O00418); experiment: SelectScreen kinase assay; type: biochemical; details: KM ATP
T6 construct: purchased Life Technologies (Invitrogen) SelectScreen, Z'-LYTE / Adapta
Protocol: as §1, §2, §3

[7] = target: T7, GRK2_h (Homo sapiens, UniProt P25098); experiment: SelectScreen kinase assay; type: biochemical; details: KM ATP
T7 construct: purchased Life Technologies (Invitrogen) SelectScreen, Z'-LYTE / Adapta
T7 sequence (P25098 whole entry): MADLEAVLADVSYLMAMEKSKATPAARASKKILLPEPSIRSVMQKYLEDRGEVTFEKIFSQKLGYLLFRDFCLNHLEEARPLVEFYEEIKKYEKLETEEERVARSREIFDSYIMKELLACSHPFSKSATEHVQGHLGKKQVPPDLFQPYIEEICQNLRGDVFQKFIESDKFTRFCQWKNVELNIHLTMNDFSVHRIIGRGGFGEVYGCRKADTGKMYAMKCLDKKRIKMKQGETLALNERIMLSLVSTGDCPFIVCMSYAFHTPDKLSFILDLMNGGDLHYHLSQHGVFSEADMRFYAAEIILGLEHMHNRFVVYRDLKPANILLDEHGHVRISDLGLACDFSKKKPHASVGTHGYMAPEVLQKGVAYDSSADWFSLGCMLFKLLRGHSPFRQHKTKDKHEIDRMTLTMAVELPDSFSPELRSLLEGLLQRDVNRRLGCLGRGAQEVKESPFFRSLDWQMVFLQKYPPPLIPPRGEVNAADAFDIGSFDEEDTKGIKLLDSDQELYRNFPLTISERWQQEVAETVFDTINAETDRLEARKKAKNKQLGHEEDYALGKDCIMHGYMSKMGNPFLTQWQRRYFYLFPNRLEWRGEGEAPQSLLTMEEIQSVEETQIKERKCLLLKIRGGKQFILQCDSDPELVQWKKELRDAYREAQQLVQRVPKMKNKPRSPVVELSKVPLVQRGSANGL
Protocol: as §1, §2, §3

[8] = target: T8, GRK3_h (Homo sapiens, UniProt P35626); experiment: SelectScreen kinase assay; type: biochemical; details: KM ATP
T8 construct: purchased Life Technologies (Invitrogen) SelectScreen, Z'-LYTE / Adapta
Protocol: as §1, §2, §3

[9] = target: T9, GRK5_h (Homo sapiens, UniProt P34947); experiment: SelectScreen kinase assay; type: biochemical; details: KM ATP
T9 construct: purchased Life Technologies (Invitrogen) SelectScreen, Z'-LYTE / Adapta
T9 sequence (P34947 whole entry): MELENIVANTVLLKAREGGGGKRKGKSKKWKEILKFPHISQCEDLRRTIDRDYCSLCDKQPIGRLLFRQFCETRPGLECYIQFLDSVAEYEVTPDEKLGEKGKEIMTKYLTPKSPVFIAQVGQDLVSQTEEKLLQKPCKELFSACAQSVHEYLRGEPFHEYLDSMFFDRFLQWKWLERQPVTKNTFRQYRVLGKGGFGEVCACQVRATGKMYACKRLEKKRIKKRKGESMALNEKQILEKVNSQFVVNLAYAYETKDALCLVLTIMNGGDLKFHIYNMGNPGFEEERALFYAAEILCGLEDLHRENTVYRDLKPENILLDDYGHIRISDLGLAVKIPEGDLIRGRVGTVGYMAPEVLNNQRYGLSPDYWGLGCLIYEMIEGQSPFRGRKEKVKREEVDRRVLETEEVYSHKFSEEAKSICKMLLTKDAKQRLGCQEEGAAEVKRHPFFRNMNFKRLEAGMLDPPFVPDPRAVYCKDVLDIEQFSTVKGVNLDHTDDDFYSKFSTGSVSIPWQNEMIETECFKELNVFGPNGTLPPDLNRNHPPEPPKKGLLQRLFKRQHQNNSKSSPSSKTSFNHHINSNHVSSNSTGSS
Protocol: as §1, §2, §3

[10] = target: T10, GSG2 _h (Homo sapiens, UniProt Q8TF76); experiment: SelectScreen kinase assay; type: biochemical; details: KM ATP
T10 construct: purchased Life Technologies (Invitrogen) SelectScreen, Z'-LYTE / Adapta
Protocol: as §1, §2, §3

[11] = target: T11, MAPKAP-K3_h (Homo sapiens, UniProt Q16644); experiment: SelectScreen kinase assay; type: biochemical; details: KM ATP
T11 construct: purchased Life Technologies (Invitrogen) SelectScreen, Z'-LYTE / Adapta
T11 sequence (Q16644 whole entry): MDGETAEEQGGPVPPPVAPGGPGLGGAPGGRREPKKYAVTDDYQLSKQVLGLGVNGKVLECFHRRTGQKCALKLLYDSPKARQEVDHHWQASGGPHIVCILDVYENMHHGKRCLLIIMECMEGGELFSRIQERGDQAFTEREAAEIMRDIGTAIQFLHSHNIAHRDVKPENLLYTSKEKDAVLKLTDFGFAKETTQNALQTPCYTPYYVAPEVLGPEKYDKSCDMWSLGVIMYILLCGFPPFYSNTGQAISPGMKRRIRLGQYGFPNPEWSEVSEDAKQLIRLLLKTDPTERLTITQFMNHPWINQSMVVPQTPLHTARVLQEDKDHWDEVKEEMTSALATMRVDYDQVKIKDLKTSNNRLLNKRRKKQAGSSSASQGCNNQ
Protocol: as §1, §2, §3

[12] = target: T12, PASK_h (Homo sapiens, UniProt Q96RG2); experiment: SelectScreen kinase assay; type: biochemical; details: KM ATP
T12 construct: purchased Life Technologies (Invitrogen) SelectScreen, Z'-LYTE / Adapta
Protocol: as §1, §2, §3

[13] = target: T13, PKC-alpha_h (Homo sapiens, UniProt P17252); experiment: SelectScreen kinase assay; type: biochemical; details: KM ATP
T13 construct: purchased Life Technologies (Invitrogen) SelectScreen, Z'-LYTE / Adapta
Protocol: as §1, §2, §3

[14] = target: T14, PKC-betaI_h (Homo sapiens, UniProt P05771); experiment: SelectScreen kinase assay; type: biochemical; details: KM ATP
T14 construct: purchased Life Technologies (Invitrogen) SelectScreen, Z'-LYTE / Adapta
Protocol: as §1, §2, §3

[15] = target: T15, PKC-zeta_h (Homo sapiens, UniProt Q05513); experiment: SelectScreen kinase assay; type: biochemical; details: KM ATP
T15 construct: purchased Life Technologies (Invitrogen) SelectScreen, Z'-LYTE / Adapta
T15 sequence (Q05513 whole entry): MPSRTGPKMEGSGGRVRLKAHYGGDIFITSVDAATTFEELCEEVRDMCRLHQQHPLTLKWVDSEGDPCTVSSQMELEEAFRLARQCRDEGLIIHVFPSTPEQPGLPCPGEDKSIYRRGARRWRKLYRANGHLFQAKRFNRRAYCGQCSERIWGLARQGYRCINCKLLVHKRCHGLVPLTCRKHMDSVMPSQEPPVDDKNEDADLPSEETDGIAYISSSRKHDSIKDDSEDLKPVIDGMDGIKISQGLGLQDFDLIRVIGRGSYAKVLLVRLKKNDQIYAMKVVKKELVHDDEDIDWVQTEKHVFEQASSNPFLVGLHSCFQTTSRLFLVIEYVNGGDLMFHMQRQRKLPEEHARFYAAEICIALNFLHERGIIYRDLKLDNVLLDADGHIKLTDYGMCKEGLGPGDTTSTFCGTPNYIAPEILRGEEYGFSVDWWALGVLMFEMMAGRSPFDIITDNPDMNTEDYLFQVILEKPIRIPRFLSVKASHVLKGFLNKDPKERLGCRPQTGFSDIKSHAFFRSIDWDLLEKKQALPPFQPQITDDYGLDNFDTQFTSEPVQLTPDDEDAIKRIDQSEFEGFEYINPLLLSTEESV
Protocol: as §1, §2, §3

[16] = target: T16, SGK2_h (Homo sapiens, UniProt Q9HBY8); experiment: SelectScreen kinase assay; type: biochemical; details: KM ATP
T16 construct: purchased Life Technologies (Invitrogen) SelectScreen, Z'-LYTE / Adapta
Protocol: as §1, §2, §3

[17] = target: T17, SGK_h (Homo sapiens, UniProt O00141); experiment: SelectScreen kinase assay; type: biochemical; details: KM ATP
T17 construct: purchased Life Technologies (Invitrogen) SelectScreen, Z'-LYTE / Adapta
Protocol: as §1, §2, §3

[18] = target: T18, TSSK2_h (Homo sapiens, UniProt Q96PF2); experiment: SelectScreen kinase assay; type: biochemical; details: KM ATP
T18 construct: purchased Life Technologies (Invitrogen) SelectScreen, Z'-LYTE / Adapta
T18 sequence (Q96PF2 whole entry): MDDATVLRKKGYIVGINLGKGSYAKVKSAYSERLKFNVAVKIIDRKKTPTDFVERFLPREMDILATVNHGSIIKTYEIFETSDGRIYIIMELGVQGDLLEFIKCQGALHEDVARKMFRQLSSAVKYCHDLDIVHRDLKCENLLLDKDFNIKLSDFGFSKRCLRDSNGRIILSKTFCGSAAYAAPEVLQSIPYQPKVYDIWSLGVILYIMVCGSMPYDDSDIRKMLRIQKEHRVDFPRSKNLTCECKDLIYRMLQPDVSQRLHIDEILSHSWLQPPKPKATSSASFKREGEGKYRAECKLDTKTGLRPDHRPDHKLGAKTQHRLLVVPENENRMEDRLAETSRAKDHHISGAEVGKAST
Protocol: as §1, §2, §3

[19] = target: T19, NEK7_h (Homo sapiens, UniProt Q8TDX7); experiment: SelectScreen kinase assay; type: biochemical; details: KM ATP, read-out: % control
T19 construct: purchased Life Technologies (Invitrogen) SelectScreen, Z'-LYTE / Adapta

[20] = tested on: primary human eosinophils; experiment: primary human eosinophils, IL-3 stimulated MCP-1 secretion; type: cell-based
Protocol: Cells were purified from EDTA-treated human whole blood using Polymorphprep (VWR, Radnor, PA) according to the protocol provided by the supplier. Eosinophils were further purified using an Eosinophil Kit (Miltenyi, Auburn, CA) according to manufacturer’s instructions. Neutrophil and eosinophil cell pellets were incubated in phenol red-free RPMI (Life Technologies, Grand Island, NY) for 30 minutes, washed in Kreb’s Ringer buffer, and plated in 96-well white opaque plates (Perkin Elmer, Foster City, CA) for luminescence. Neutrophils were diluted with Kreb’s Ringer buffer containing luminol (200 μM final concentration, Sigma Chemicals, St. Louis, MO) and preincubated with CC-509 for 30 minutes at 37°C. Neutrophils were activated with 0.5 mg/mL final concentration of opsonized zymosan, incubated for 30 minutes at room temperature in the dark, and then read on an Envision 2104 Multilabel Reader (Perkin Elmer, Foster City, CA). Opsonized zymosan was prepared as follows: Zymosan A (Sigma Aldrich, St. Louis, MO) was boiled, washed, and resuspended to a final concentration of 20mg/ml in 150mM NaCl. […] For eosinophils, cells were stimulated with IL-3 (200 pM, R&D Systems, Minneapolis, MN) for 24 hours at which point supernatants were collected and assessed for MCP-1 (Mesoscale).

[21] = preclinical toxicology studies, myelosuppression in male rats; type: in vivo, rat
[22] = rat CIA, cited from earlier work

c1cc(CC2CCOCC2)n2nc(Nc3ccc4c(NC5CCOCC5)n[nH]c4c3)nc2c1 [CC-509, [3-(2H-3,4,5,6-tetrahydropyran-4-ylamino)(1H-indazol-6-yl)][5-(2H-3,4,5,6-tetrahydropyran-4-ylmethyl)(2H-1,2,4-triazolo[1,5-a]pyridin-2-yl)]amine]
remaining activity at 3 µM ([1]; read-out: % control): 31% | remaining activity at 3 µM ([2]; read-out: % control): 63% | remaining activity at 3 µM ([3]; read-out: % control): 82% | remaining activity at 3 µM ([4]; read-out: % control): 80% | remaining activity at 3 µM ([5]; read-out: % control): 97% | remaining activity at 3 µM ([6]; read-out: % control): 94% | remaining activity at 3 µM ([7]; read-out: % control): 82% | remaining activity at 3 µM ([8]; read-out: % control): 98% | remaining activity at 3 µM ([9]; read-out: % control): 96% | remaining activity at 3 µM ([10]; read-out: % control): 100% | remaining activity at 3 µM ([11]; read-out: % control): 88% | remaining activity at 3 µM ([12]; read-out: % control): 100% | remaining activity at 3 µM ([13]; read-out: % control): 71% | remaining activity at 3 µM ([14]; read-out: % control): 92% | remaining activity at 3 µM ([15]; read-out: % control): 86% | remaining activity at 3 µM ([16]; read-out: % control): 89% | remaining activity at 3 µM ([17]; read-out: % control): 96% | remaining activity at 3 µM ([18]; read-out: % control): 93% | remaining activity at 3 µM [19]: 102% | IC50 ([20]; Homo sapiens, Eosinophil): 110 ± 50 nM | exposure producing myelosuppression [21]: 630 µM·h | fold higher exposure producing myelosuppression than R406 [21]: approximately 5 fold

COc1cc(Nc2ncc(F)c(Nc3ccc4c(n3)NC(=O)C(C)(C)O4)n2)cc(OC)c1OC [R406, reference compound]
% control ([1]; 3 µM): 34% | % control ([2]; 3 µM): 11% | % control ([3]; 3 µM): 68% | % control ([4]; 3 µM): 90% | % control ([5]; 3 µM): 69% | % control ([6]; 3 µM): 92% | % control ([7]; 3 µM): 99% | % control ([8]; 3 µM): 103% | % control ([9]; 3 µM): 108% | % control ([10]; 3 µM): 64% | % control ([11]; 3 µM): 96% | % control ([12]; 3 µM): 104% | % control ([13]; 3 µM): 42% | % control ([14]; 3 µM): 59% | % control ([15]; 3 µM): 100% and 101% | % control ([16]; 3 µM): 92% | % control ([17]; 3 µM): 94% | % control ([18]; 3 µM): 96% | IC50 [20]: 1410 ± 1730 nM | exposure following a single dose ([22]; 10 mg/kg b.i.d.): 15 µM·h | exposure following a single dose ([22]; 30 mg/kg b.i.d.): 38 µM·h
